Experimental data reported in article PMC4119598 (Journal of natural products, 2013).
pIC50: −log10 of the molar value.

Assays:
[1] = tested on: fabp10a:DsRed2 zebrafish larvae; experiment: In vivo hepatotoxicity in fabp10a:DsRed2 zebrafish larvae; parameters: species or system zebrafish (Brachydanio rerio); settings: for liver phenotype (Figure 3): 6 dpf after 3 days of exposure at MTC (60.2 μM of 1, 15.5 μM of 2, 0.3 μM of 4)
MtFabI = MtFabI (Mycobacterium tuberculosis, UniProt P9WGR1); experiment: FabI enzyme inhibition assay MtFabI; format: biochemical, M. tuberculosis
Chain of MtFabI (P9WGR1 whole entry, looked up): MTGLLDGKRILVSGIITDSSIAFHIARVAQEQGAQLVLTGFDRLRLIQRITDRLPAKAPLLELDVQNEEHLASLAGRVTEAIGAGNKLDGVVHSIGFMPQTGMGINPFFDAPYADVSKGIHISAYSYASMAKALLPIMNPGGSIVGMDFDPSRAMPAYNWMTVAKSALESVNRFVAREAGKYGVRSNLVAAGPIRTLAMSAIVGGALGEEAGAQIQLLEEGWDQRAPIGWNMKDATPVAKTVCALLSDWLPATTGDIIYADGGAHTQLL

P. berghei LS parasites = experiment: Immunofluorescence analysis; format: cell-based, Plasmodium berghei; settings: 10 μM, 48 h post-infection
BS of Plasmodium = settings: read-out: BS IC50 (reported); cited from earlier work

SMILES: COc1cc(C)c(C(=O)Oc2cc(C)c(C(=O)O)c(O)c2)c(O)c1 [compound 1, evernic acid]
- liver phenotype (Figure 3) [1]: reduced liver size
- pIC50 (MtFabI): < 3.70
- effect on size of LS parasites (IFA) (P. berghei LS parasites): no effect

SMILES: COC(=O)/C(=C1/OC(=O)C(c2ccccc2)=C1O)c1ccccc1 [compound 2, vulpic acid]
- liver phenotype (Figure 3) [1]: enlarged liver
- pIC50 (MtFabI): < 3.70
- effect on size of LS parasites (IFA) (P. berghei LS parasites): decrease in the size of parasites

SMILES: COc1cc(C(=O)O)c2c(c1C)OC(=O)c1c(C)cc(O)c(C=O)c1O2 [compound 3, psoromic acid]
- pIC50 (MtFabI): < 3.70
- effect on size of LS parasites (IFA) (P. berghei LS parasites): no effect

SMILES: CC(=O)C1=C(O)C=C2Oc3c(C(C)=O)c(O)c(C)c(O)c3[C@@]2(C)C1=O [compound 4, (+)-usnic acid]
- liver phenotype (Figure 3) [1]: liver with normal shape and size
- hepatotoxicity in zebrafish larvae ([1]; highest concentrations tested, up to and including MTC): no hepatotoxicity was observed
- effect on size of LS parasites (IFA) (P. berghei LS parasites): decrease in the size of parasites

SMILES: COc1cc(NC(C)CCCN)c2ncccc2c1 (stereo not drawn) [primaquine]
- pIC50 (BS of Plasmodium): 5.48 to 5.85
